PMC8086025, “A benzopyran with antiarrhythmic activity is an inhibitor of Kir3.1-containing potassium channels” (The Journal of Biological Chemistry, 2021)
“And” between values parts separate entries of the source, which are not always exact repeats. Identical values can stand only once. “Also recorded” adds a separate entry of the source. Like-named read-outs stand apart in the source and are kept apart here.

How the values were obtained:
[1] = target: T1, Kir3.4/4(S143F) with E147A in the Kir3.4(S143F) subunit (Homo sapiens, UniProt P48544, E147A/S143F); test: TEVC in Xenopus oocytes, E147A mutant in the Kir3.4(S143F) subunit; assay type: cell-based; conditions: 1 μM
T1 construct: expressed in transfected cells; host or cells: Xenopus laevis oocytes (cRNA injection)
Description: (§1) X. laevis oocytes were isolated and microinjected as previously described ([6]). Human Kir3.1, mouse Kir3.2, and human Kir3.4 DNA constructs were used for electrophysiology experiments. All cRNA constructs were injected in the amount of 2 ng per oocyte. Injected oocytes were incubated for 2 to 3 days at 18 °C to allow for expression. Whole-cell oocyte currents were then measured using a GeneClamp 500 amplifier (Axon Instruments). Microelectrodes had resistances of 0.5 to 1 megohm using a 3M KCl solution in 1.4% agarose. Oocytes were perfused with a low K^+ (LK) solution ND96 (2 mM KCl, 96 mM NaCl, 1 mM MgCl2, 1.8 mM CaCl2, 5 mM HEPES-Na) to establish a baseline for the recordings. Basal current was measured in a high potassium (HK) solution ND96K (96 mM KCl, 10 mM HEPES-K, 1 mM MgCl2, 1.8 mM CaCl2). To block the current, the oocyte chamber was perfused with 4 mM BaCl2 in ND96K. Only the Barium-sensitive current was used for statistical analysis. To measure the inhibitory activity of the channels, 1 μM BP-G1 in ND96K (HK) was used. Typically, oocytes were held at 0 mV (EK) and the current was monitored constantly using a ramp protocol with a command potential from −80 to +80 mV. Current amplitude was measured at the end of a 1 s sweep. All currents were analyzed when they reached steady state. Error bars in the figures represent SD (N > 4).

[2] = Rat PK, IV/PO cross over and brain penetration; assay type: in vivo
Kir3.1(E141A/D173A) = Kir3.1(E141A/D173A) (Homo sapiens, UniProt P48544+P48549, D173A/E141A); assay type: cell-based; conditions: 1 μM, TEVC
Kir3.1/4 channel = target: T2, Kir3.1/4 channel (Homo sapiens, UniProt P48544+P48549); test: TEVC in Xenopus oocytes, Kir3.1/4; assay type: cell-based; design: expressed in transfected cells; host or cells: Xenopus laevis oocytes (cRNA injection)
T2 sequence (P48549 1-501): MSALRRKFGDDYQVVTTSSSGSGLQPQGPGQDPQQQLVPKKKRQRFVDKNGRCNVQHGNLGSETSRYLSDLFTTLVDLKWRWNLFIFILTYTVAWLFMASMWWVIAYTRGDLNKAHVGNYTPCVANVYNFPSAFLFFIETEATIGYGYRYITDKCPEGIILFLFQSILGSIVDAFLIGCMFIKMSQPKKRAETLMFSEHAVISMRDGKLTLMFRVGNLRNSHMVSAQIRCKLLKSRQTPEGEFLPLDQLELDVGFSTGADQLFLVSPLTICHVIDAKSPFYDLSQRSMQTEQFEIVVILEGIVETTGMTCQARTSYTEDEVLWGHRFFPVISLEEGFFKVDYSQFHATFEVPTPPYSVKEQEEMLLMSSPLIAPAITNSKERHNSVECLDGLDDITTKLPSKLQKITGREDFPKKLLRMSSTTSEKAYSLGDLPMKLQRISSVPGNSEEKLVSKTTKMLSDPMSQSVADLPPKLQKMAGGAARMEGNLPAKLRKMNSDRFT
T2 sequence (P48544 1-419): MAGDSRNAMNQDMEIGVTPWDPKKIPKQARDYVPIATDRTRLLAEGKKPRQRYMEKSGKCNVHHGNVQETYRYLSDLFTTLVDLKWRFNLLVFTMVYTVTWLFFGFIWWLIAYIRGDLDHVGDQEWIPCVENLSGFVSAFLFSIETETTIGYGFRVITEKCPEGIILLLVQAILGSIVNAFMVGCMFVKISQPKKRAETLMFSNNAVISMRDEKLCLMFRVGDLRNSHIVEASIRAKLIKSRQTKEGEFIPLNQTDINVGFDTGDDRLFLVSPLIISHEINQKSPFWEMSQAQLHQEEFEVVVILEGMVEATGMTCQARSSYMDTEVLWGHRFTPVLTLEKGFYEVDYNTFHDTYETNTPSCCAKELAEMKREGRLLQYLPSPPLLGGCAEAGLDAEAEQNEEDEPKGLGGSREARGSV
Description: as §1

[3] = Plasma protein binding, rat; assay type: in vitro ADME; conditions: read-out: Rat Plasma Protein Binding (PPB) (converted)
IKACh = test: In vivo ECG, carbachol-induced heart rate slowing in anesthetized mice; conditions: 40 μl of 240 μM via jugular vein
Description: We tested the in vivo effects of BP-G1 versus those of BP-G1(SR) on heart rate in anesthetized adult mice (Fig. 8). ECG was continuously recorded. Panel A is the ECG showing that after carbachol (300 μl of 200 μM) was administered, i.p. (red mark), the heart decelerated, with a visible RR prolongation. About 10 min after carbachol injection, BP-G1 was delivered via the jugular vein (40 μl of 240 μM) (green mark). Within 5 min, there was a reversal of carbachol’s effects on the heart rate. Panel B is a control mouse showing heart rate slowing after carbachol administration (red mark).
Mice were anesthetized (1.5% isofluorane), and a 1.2 French octapolar catheter (Millar) with a drug delivery port was placed transvenously, through the jugular vein, into the right atrium. Continuous ECG was recorded using the Animal Bio Amp and PowerLab 4/35 Advanced Instruments apparatus. […] Saline control at the same volume was performed. Results are averages ±SD.

Kir3.1(D173A) mutant = target: T3, Kir3.1(D173A) mutant (Homo sapiens, UniProt P48544+P48549, D173A); test: TEVC in Xenopus oocytes, Kir3.1(D173A)/4; assay type: cell-based; conditions: 1 μM
T3 construct: expressed in transfected cells; host or cells: Xenopus laevis oocytes (cRNA injection)
Description: as §1

Chain of Kir3.1(E141A/D173A) (P48549 whole entry E141A/D173A, one chain of several): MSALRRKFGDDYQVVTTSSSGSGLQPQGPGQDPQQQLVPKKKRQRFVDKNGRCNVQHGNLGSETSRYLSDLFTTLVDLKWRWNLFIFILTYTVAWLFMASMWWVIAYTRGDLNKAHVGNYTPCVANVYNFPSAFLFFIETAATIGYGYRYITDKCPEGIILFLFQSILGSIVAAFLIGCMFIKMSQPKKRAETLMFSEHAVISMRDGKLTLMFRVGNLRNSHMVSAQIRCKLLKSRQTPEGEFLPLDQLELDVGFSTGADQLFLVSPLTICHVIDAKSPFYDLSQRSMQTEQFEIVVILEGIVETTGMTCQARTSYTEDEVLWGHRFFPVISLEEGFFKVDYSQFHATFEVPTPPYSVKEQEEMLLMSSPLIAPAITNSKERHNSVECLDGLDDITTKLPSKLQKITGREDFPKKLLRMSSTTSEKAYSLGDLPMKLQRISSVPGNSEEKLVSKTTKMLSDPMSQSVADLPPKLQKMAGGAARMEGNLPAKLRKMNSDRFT
T3 sequence (P48549 whole entry D173A, one chain of several): as the sequence (P48549 whole entry E141A/D173A, one chain of several) above, with A141E counted along it
T1 sequence (P48544 whole entry S143F/E147A, one chain of several): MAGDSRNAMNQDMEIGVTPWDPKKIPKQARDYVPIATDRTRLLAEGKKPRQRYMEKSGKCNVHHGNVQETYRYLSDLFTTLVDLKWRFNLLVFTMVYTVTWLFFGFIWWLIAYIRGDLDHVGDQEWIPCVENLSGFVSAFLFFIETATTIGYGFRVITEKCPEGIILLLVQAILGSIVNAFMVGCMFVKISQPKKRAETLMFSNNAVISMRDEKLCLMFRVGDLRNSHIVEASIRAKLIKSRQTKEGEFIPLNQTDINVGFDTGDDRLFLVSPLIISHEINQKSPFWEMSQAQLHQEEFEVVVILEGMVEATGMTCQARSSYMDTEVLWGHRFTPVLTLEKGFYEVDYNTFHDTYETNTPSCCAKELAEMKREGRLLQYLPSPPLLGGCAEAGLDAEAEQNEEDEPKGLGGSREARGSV

Question: Which results are given for `Cc1cc(CO)nc2cc3c(cc12)OC(C)(C)[C@H](O)[C@H]3NCCc1ccccc1` [BP-G1, (3R,4S)-7-(hydroxymethyl)-2,2,9-trimethyl-4-(2-phenylethylamino)-3,4-dihydropyrano[2,3-g]quinolin-3-ol]?
Answer: block of Kir3.4/4(S143F) carrying E147A [1]: abolished block; Co ([2]; 1mg/kg iv.): 3941 ng/mL; CL ([2]; 5mg/kg po.): 3.3 mL/min/kg; Kp ([2]; rat, brain and plasma, 5mg/kg po., read-out: CNS Penetration (B:P)): 0.2; Vd ([2]; rat, in vivo, 1mg/kg iv.): 1 L/kg; clearance ([2]; rat, in vivo, 1mg/kg iv.): 3.39 mL/min/kg; bioavailability ([2]; rat, in vivo, 1mg/kg iv. / 5mg/kg po., read-out: Oral bioavailability F%): 32%; AUC(0-inf) ([2]; rat, in vivo, 1mg/kg iv., read-out: Rat iv. AUC∞): 4950 ng·h/mL; Cmax ([2]; rat, in vivo, 5mg/kg po.): 1190 ng/mL; AUC(0-t) ([2]; rat, in vivo, 5mg/kg po., read-out: Rat p.o. AUCt): 6420 ng·h/mL; AUC(0-inf) ([2]; rat, in vivo, 5mg/kg po., read-out: Rat p.o. AUC∞): 16800 ng·h/mL; half-life ([2]; rat, in vivo, listed under 5mg/kg po.): 12.2 h; current block, Kir3.1(E141A/D173A) (Kir3.1(E141A/D173A)): abolished any current block; also recorded: abolished the block; current block, wild-type Kir3.1/4 (Kir3.1/4 channel; 1 μM, TEVC): 75 to 80%; IC50 (Kir3.1/4 channel; TEVC oocyte experiments, read-out: IC50, inhibition of Kir3.1/4): 55 nM and 55.9 nM; fraction unbound [3]: 0.11; time to reversal of carbachol’s effects on the heart rate (IKACh): ≤ 5 min; RR interval 5 min after compound, given about 10 min after carbachol (IKACh; anesthetized mice, mean ± SD, N = 3): 155.4 ± 5.5 ms; current block, Kir3.1(D173A) (Kir3.1(D173A) mutant): ~25%
